Data set [1] in a line: Viability of dendritic cells (CCK-8 assay). The class given is cell-based. The note with it: for viability at 100 μg/mL: DCs, CCK-8, mean ± S.D., triplicate, read-out: Cell Viability (%) (DCs). The method, then:
(§1) In this study, the viability of D.C. cells was evaluated at a concentration of 100 μg/mL using a cell-counting-kit assay (CCK-8) obtained from Dojindo Molecular Technologies, Inc. (Kumamoto, Japan), which measured absorbance at a wavelength of 450 nm, following the methodology outlined by Chung et al.. The expression of the pro-inflammatory cytokine, TNF-α, in the culture supernatant was screened using the dendritic cells ELISA kit, as described in a previous study.
On the technique in general: Tetrazolium assays rely on reduction of a dye to a coloured formazan, in cell work by metabolically active cells.

In data set [2] the test system is TNF-α. The data set is described as follows: TNF-α expression in LPS-stimulated dendritic cells (ELISA). The class given is cell-based. The note with it: for IC50: Dendritic cell; for Anti-inflammatory activity (result in words): LPS-stimulated dendritic cells, pro-inflammatory cytokine / TNF-α production. The method, then:
as §1
A general note: ELISA stands for enzyme-linked immunosorbent assay.

Data set [3] has as its system cell lines derived from the brain, kidney, and colon. More on the design: method as in PMID 1501227, PMID 9443608. The note with it: cited from earlier work.
Where [4] appears, read: read-out: Anti-Inflammatory Activity (IC50) TNF-α Expression (LPS/DCs).

Like-named read-outs stand apart in the source and are kept apart here.

With `C=C[C@@](C)(Cl)[C@@H](Cl)/C=C/C(C)(Cl)C(Cl)Cl` (relative stereo) [Compound 2, (3R*,4S*,5E)-3,4,7,8,8-Pentachloro-3,7-dimethyl-octa-1,5-diene], the viability (commonly the share of living cells, or the viability signal relative to a control) at 100 μg/mL in data set [1] is 88.8 ± 8.1%. For the same compound, the IC50 in data set [2] (setting [4]) was above 100 µM.

Consider `C=C[C@@](C)(Cl)[C@@H](Br)/C=C/[C@](C)(Cl)C(Cl)Cl` [Compound 1, (3R,4S,5E,7S)-4-Bromo-3,7,8,8-tetrachloro-3,7-dimethyl-octa-1,5-diene], for which, in data set [1], the viability at 100 μg/mL was 47 ± 2.1%. In addition, in data set [2] (setting [4]), the IC50 was determined as 2.5 ± 0.4 µM. The “Anti-inflammatory activity (result in words)” value (from here on “Anti-inflammatory activity”) in data set [2] is given as “significantly reduce the TNF-α”.

In the case of `C=C[C@](C)(Cl)[C@H](Cl)/C=C/C(=C/Cl)C(Br)Br` [Compound 3, (3S,4R,5E,7Z)-3,4,8-trichloro-7-dibromomethyl-3-methyl-octa-1,5,7-triene], the viability at 100 μg/mL in data set [1] came to 80.2 ± 8.3%. Further, in data set [2] (setting [4]), the IC50 is above 100 µM. Also, in data set [2], the “Anti-inflammatory activity” value is reported as “did not show any activity”.

On to `C=C[C@@](C)(Cl)[C@@H](Cl)/C=C/C(=C/Cl)C(Cl)Cl` [Compound 4], for which the viability at 100 μg/mL in data set [1] came to 51.1 ± 2.2%. The IC50 in data set [2] (setting [4]) came out at 6.2 ± 1.1 µM. The “Anti-inflammatory activity” value in data set [2] is “significantly reduce the TNF-α”.

In the case of `C=C[C@@](C)(Cl)[C@H](Cl)/C=C/C(=C/Cl)C(Cl)Cl` [Compound 5], the viability at 100 μg/mL in data set [1] was 49.1 ± 2.7%. In data set [2] (setting [4]), the IC50 was 10.6 ± 1.3 µM. Also, the “Anti-inflammatory activity” value in data set [2] is on record as “significantly reduce the TNF-α”.

As to `C=C(Cl)[C@](Cl)(CBr)CC[C@@H](Br)C(C)(C)Cl` [halomon], in data set [3], the “Cytotoxicity in NCI human tumor cell line screen (result in words)” value is recorded as “significant differential cytotoxicity”.

As to `O=c1c(O)c(-c2ccc(O)c(O)c2)oc2cc(O)cc(O)c12` [quercetin, reference compound], the IC50 in data set [1] (dendritic cells (DCs), positive control, read-out: Cytotoxicity against DCs, IC50) amounted to 78.8 ± 7.3 µM; in data set [2] (LPS-stimulated DCs, unit inferred, read-out: IC50, reduction of TNF-α production in LPS-stimulated dendritic cells) it was 23.1 ± 5.2 µM.

The values are drawn from paper PMC10533049, “Anti-Inflammatory Halogenated Monoterpenes from the Red Alga Portieria hornemannii” (Marine Drugs, 2023).
